Data set [1] concerns RPMI8402. Description: MTT-microtiter plate tetrazolinium cytotoxicity assay, RPMI8402. It is filed as cell-based. The note with it: Homo sapiens, RPMI 8402, RPMI8402 cells, continuous exposure 3-4 days. As for the experimental part: (§1) Test B. Inhibition of Cell Growth: MTT-microtiter Plate Tetrazolinium Cytotoxicity Assay (RPMI 8402, CPT-K5, U937, U937/CR Cells)
(§2) The cytotoxicity is determined using the MTT-microtiter plate tetrazolinium cytotoxicity assay (MTA), see Chen A. Y. et al. Cancer Res. 1993, 53, 1332; Mosmann, T. J., J. Immunol. Methods 1983, 65, 55; and Carmichael, J. et al. Cancer Res. 1987, 47, 936. The human lymphoblast RPMI 8402 and its camptothecin-resistant variant cell line, CPT-K5 were provided by Dr. Toshiwo Andoh (Anchi Cancer Research Institute, Nagoya, Japan), see Andoh, T.; Okada, K, Adv. in Pharmacology 1994, 29B, 93. Human U-937 myeloid leukemia cells and U-937/CR cells were described by Rubin et al., J. Biol. Chem., 1994, 269, 2433-2439. The cytotoxicity assay is performed by using 96-well microtiter plates using 2000 cells/well, in […] of growth medium. Cells are grown in suspension at 37° C. in 5% CO2 and maintained by regular passage in RPMI medium supplemented with 10% heat-inactivated fetal bovine serum, L-glutamine (2 mM), penicillin (100U/mL), and streptomycin (0.1 mg/mL). For determination of IC50, cells are exposed continuously for 3-4 days to varying concentrations of drug, and MTT assays were performed at the end of the fourth day. […] All assays are performed at least twice in 6 replicate wells. […]

Data set [2] has as its system CPT-K5. Description: MTT-microtiter plate tetrazolinium cytotoxicity assay, CPT-K5 (camptothecin-resistant variant). Conditions: Homo sapiens, CPT-K5 cells (camptothecin-resistant variant of RPMI 8402), continuous exposure 3-4 days. It counts as cell-based. As for the experimental part: as §1, §2
For data set [3], the system named is KB3-1. Kind of data set: MTT-microtiter plate tetrazolinium cytotoxicity assay, KB3-1. It is filed as cell-based. The note with it: Homo sapiens, KB 3-1, KB3-1 cells. On the procedure:
as §1, §2

In data set [4] the test system is KBV-1. Description: MTT-microtiter plate tetrazolinium cytotoxicity assay, KBV-1. The note with it: Homo sapiens, KB-V1, KBV-1 cells. It counts as cell-based. As for the experimental part:
as §1, §2

Data set [5] relates to KBH5.0. Kind of data set: MTT-microtiter plate tetrazolinium cytotoxicity assay, KBH5.0. It counts as cell-based. The note with it: KBH5.0 cells. As for the experimental part:
as §1, §2

Data set [6] has as its system HL60. Description: MTT-microtiter plate tetrazolinium cytotoxicity assay, HL60. It is filed as cell-based. Conditions: Homo sapiens, HL-60, HL60 cells. As for the experimental part:
as §1, §2

Data set [7] has as its system HL60/MX2. Description: MTT-microtiter plate tetrazolinium cytotoxicity assay, HL60/MX2. It is filed as cell-based. The note with it: Homo sapiens, HL60/MX2 cells. As for the experimental part: as §1, §2

On to `CN(C)CCCn1c2c(c3ccc([N+](=O)[O-])cc3c1=O)C(=O)c1cc3c(cc1-2)OCO3` [Compound B], for which the melting point is 191 to 192 °C. Further, the IC50 in data set [1] worked out at 0.003 µM. This molecule also displayed an IC50 in data set [2] of 2.4 µM. In data set [3], this molecule came in with a half-maximal inhibitory concentration (IC50) of 0.004 µM. In addition, the IC50 in data set [4] is 0.004 µM. Inhibition in data set [5] was half-maximal at 0.004 µM (IC50). In data set [6], the IC50 is 0.003 µM. Further, the concentration for half-maximal inhibition (IC50) in data set [7] amounted to 0.003 µM.
